Results reported in US9844521B2, “Pharmaceutical composition comprising ginger extract or shogaol” (UNIVERSITY-INDUSTRY COOPERATION GROUP OF KYUNG HEE …, priority 2008, dated 2017).

Columns and labels:
[1] = test system: rat primary mesencephalic dopaminergic cells; assay: Protection of dopamine cells against MPP+ neurotoxicity (TH immunohistochemistry); assay type: cell-based; conditions: 0.01 μM, 10 μM MPP+ for 23 hours; MPP+ group 44.25±7.61% of a control
Description: Female Sprague-Dawley rats (2-week old) were used, and shogaol was obtained from WAKO Company (Japan).
Fetal mesencephalon tissues of Sprague-Dawley rats […] were desquamated, and mechanically dissociated by using a forcept. The tissues were treated with trypsin and the number of cells was counted, and the cells were seeded on a cover slip coated with poly-L-lysine (PLL), and then proliferated in an incubator including 5% CO2 and 95% air at a temperature of 37 °C for 5 days. A fetal bovine serum (FBS)-free media was treated with 0.01 μM or 0.1 μM of shogaol after the shogaol was diluted, or the ginger extract (the ethanol extract, the hexane fraction, the ethyl acetate fraction, the butanolfraction, and the water fraction prepared according to Example 1) after the ginger extract was diluted. […]
Cells immobilized by using 4% PFA were washed with PBS and then, dehydrated with 1% hydrogen peroxide for 15 minutes. […] After the color-producing using DAB, a cover slip was separated and then mounted on a slide by using a gel mount and the number of cells was counted.
Cells were color-produced by immunohistochemistry in the same manner as Experimental Example 3-1, and the number of cells was counted and the results are shown in FIGS. 8 and 9.

[2] = test system: C57BL/6 mouse having MPTP-induced Parkinson's disease; assay: Dopamine cell protective activity in striatum and substantia nigra (TH immunohistochemistry), MPTP model; assay type: in vivo; conditions: 10 mg/kg oral once per day for 5 days, MPTP 30 mg/kg i.p., p<0.05 vs MPTP group
Description: Mice were divided into three groups, each of which consisted of 6 mice. A first group (control) and a second group (MPTP group) were orally administered once per day with 10% dimethyl sulfoxide in an amount of 5 ml per mouse weight kg for 5 days, and a third group (shogaol-administered group) was orally administered once per day with 10 mg/kg of shogaol dissolved in 10% dimethyl sulfoxide for 5 days. 2 hours after the oral administration, the first group (control) was intraperitoneally administered with saline in an amount of 5 ml per mouse weight kg for 5 days, and the second and third groups were intraperitoneally administered with 30 mg/kg of MPTP dissolved in saline for 5 days.
The mice of the respective groups were sacrificed after the pole test was completely performed, and brain tissues (striatum and substantia nigra) were isolated. […]
The mice of the respective groups were sacrificed after the pole test was completely performed, and brain tissues (striatum and substantia nigra) were isolated. Protection activity was evaluated using the isolated brain tissues in the same manner as in (1-2) above, and the results are shown in FIGS. 14 and 15. […]

## CCCCC/C=C/C(=O)CCc1ccc(O)c(OC)c1 [shogaol, (E)-1-(4-hydroxy-3-methoxyphenyl)dec-4-en-3-one]
[1]
  number of dopamine positive cells: 91.50±3.38%
[2]; of a control
  number of TH positive cells in substantia nigra: 70.30±4.86
[2]
  optical density of striatum (TH immunoreactivity): 80.11±1.97 % of a control
